Source: patent publication US20100227853A1, “INHIBITORS OF CYCLIC AMP PHOSPHODIESTERASES” (Trustees of Boston College, priority 2008, published 2010)

Experiments:
PDE7A = PDE7A (Homo sapiens, UniProt Q13946); assay: 5FOA growth assay in fission yeast strain expressing PDE7A; type: cell-based; design: targets used in the assays are full-length proteins (as opposed to simply the catalytic domain); expressed in transfected cells; host or cells: Schizosaccharomyces pombe, PDE gene integrated in place of cgs2; conditions: high throughput 5FOA growth screen
Chain of PDE7A (Q13946 whole entry, the tested form may be a part): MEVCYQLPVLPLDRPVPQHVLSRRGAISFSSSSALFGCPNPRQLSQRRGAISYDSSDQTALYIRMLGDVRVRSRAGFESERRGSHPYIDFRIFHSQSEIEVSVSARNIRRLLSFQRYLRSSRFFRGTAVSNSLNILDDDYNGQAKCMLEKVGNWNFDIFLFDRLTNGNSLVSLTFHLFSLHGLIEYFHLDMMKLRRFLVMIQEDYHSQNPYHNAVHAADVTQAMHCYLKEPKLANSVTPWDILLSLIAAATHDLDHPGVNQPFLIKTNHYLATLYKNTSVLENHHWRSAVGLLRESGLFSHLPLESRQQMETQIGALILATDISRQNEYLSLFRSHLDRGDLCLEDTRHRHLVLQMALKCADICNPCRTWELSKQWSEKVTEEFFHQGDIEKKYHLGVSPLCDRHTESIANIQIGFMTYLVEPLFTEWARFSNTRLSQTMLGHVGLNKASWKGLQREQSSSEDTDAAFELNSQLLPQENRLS
Protocol: PDE inhibition allows growth in 5FOA medium as measured by optical density after 48 hours incubation at 30° C. Compound BC12 and six structural analogs were tested for growth stimulation.
(§1) Cells were pregrown in EMM medium [MP Biomedicals (Solon, Ohio), 3% glucose, filter-sterilized to avoid carmelization, which would introduce variability into the optical density of the medium] containing from 0 mM to 2.5 mM cAMP (or either 0.5 mM or 1.0 mM cGMP). This was to repress expression of the fbp1-ura4 reporter prior to exposure of cells to 5FOA medium. Cells were grown at 30° C. to exponential phase (approximately 10^7 cells/ml). Cells were collected by centrifugation and resuspended in 5FOA medium, and 25 μl were transferred to 384-well microtiter dishes (untreated, with flat clear bottoms) that had been pre-filled with 25 μl 5FOA medium and pre-pinned with 100 nl of compounds (stock solutions were generally 10 mM). Starting cell concentrations ranged from 0.5×10^5 to 4×10^5 cells/ml depending on the screening strain. […] Other positive control dishes contained 5 mM cAMP in the 5FOA medium for PDEs that lack appropriate control compounds. Cultures were grown for 48 hours at 30° C., sealed in an airtight container with moist paper towels to prevent evaporation. Optical densities (OD600) of cultures were measured using a microplate reader. Bioinformatic analysis of the results to determine composite Z scores was performed as previously described (1, 3).

PDE4B3 = molecular target: T1, PDE4B3 (Mus musculus, UniProt Q8VBU5); assay: 5FOA growth assay in fission yeast strain expressing PDE4B3; type: cell-based, Murine; conditions: high throughput 5FOA growth screen
T1 construct: targets used in the assays are full-length proteins (as opposed to simply the catalytic domain); expressed in transfected cells; host or cells: Schizosaccharomyces pombe, PDE gene integrated in place of cgs2
T1 sequence (Q8VBU5 1-721): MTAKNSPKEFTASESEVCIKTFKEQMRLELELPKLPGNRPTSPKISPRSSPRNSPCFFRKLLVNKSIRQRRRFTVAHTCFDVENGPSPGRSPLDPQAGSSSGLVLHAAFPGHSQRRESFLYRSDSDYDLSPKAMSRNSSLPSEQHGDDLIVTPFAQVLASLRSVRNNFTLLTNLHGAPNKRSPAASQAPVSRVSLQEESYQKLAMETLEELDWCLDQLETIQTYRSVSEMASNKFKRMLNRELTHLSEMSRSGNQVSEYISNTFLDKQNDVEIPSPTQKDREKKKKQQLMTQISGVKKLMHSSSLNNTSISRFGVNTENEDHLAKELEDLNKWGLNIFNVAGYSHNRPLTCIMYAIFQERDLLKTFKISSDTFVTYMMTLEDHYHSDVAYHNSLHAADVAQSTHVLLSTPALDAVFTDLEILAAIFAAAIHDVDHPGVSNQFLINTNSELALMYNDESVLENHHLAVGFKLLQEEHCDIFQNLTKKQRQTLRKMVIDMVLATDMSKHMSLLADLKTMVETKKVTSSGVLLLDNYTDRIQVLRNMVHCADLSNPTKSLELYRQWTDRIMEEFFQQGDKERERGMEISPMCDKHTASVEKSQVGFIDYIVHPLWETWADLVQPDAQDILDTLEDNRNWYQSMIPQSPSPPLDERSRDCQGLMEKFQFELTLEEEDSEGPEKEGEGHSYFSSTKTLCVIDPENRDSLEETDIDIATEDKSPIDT
Protocol: (§2) High throughput drug screens were carried out at the Broad Institute's Chemical Biology Program screening facility (Broad Institute, Cambridge, Mass.). Depending upon the strain, cultures were pregrown to exponential phase in EMM complete medium containing from 0.5 to 2.5 mM cAMP to repress fbp1-ura4 transcription. […] Starting cell concentrations ranged from 0.5×10^5 to 4×10^5 cells/ml depending on the screening strain. […] Other positive control dishes contained 5 mM cAMP in the 5FOA medium. Cultures were grown for 48 hours at 30° C., sealed in an airtight container with moist paper towels to prevent evaporation. Optical densities (OD600) of cultures were measured using a microplate reader. Bioinformatic analysis of the results to determine composite Z scores was performed as previously described^30, 31.
(§3) To determine whether the 5FOA growth phenotype could be exploited for high throughput drug screening, strains expressing PDE2A, PDE4A, PDE4B, or PDE8A were pre-grown in EMM medium containing cAMP and then transferred to 5FOA medium in 384 well microtiter plates in the presence or absence of cAMP. OD600 measurements were taken after 48 hours incubation at 30° C.
as §1, with “Cells were collected by centrifugation and resuspended in 5FOA medium, and 25 μl were transferred to 384-well microtiter dishes (untreated, with flat clear bottoms) that had been pre-filled with 25 μl 5FOA medium and pre-pinned with 100 nl of compounds (stock solutions were generally 10 mM).” left out

PDE4A1 = molecular target: T2, PDE4A1 (Mus musculus, UniProt O89084); assay: 5FOA growth assay (high throughput screen, ED50) in fission yeast strain expressing PDE4A1; type: cell-based; conditions: high throughput 5FOA growth screen; greater than 8.53 = statistically-significant inhibitor
T2 construct: targets used in the assays are full-length proteins (as opposed to simply the catalytic domain); expressed in transfected cells; host or cells: Schizosaccharomyces pombe, PDE gene integrated in place of cgs2
T2 sequence (O89084 1-610 isoform O89084-2): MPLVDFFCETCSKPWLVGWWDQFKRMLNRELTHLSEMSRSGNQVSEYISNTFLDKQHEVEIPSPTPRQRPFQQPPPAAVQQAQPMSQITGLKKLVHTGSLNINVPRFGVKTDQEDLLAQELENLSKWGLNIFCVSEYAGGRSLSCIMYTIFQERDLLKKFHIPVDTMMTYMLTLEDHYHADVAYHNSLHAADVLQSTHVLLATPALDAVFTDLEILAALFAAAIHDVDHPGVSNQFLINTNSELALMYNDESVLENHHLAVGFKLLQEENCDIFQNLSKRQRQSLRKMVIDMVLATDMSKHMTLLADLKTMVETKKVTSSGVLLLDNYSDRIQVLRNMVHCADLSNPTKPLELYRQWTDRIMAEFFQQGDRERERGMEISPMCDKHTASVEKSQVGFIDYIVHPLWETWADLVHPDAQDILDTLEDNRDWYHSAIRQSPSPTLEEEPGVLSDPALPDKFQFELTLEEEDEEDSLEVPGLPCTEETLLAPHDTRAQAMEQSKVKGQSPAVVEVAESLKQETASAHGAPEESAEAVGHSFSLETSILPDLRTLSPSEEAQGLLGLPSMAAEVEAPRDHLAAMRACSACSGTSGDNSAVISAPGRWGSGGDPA
Protocol: as §2, §3
as §1, with “Cells were collected by centrifugation and resuspended in 5FOA medium, and 25 μl were transferred to 384-well microtiter dishes (untreated, with flat clear bottoms) that had been pre-filled with 25 μl 5FOA medium and pre-pinned with 100 nl of compounds (stock solutions were generally 10 mM).” left out

SMILES	Composite Z score, PDE7A (PDE7A)	Composite Z score, PDE4B3 (PDE4B3)	Composite Z score, PDE4A1 (PDE4A1)
O=C(c1ccco1)N1CCN(c2ncnc3sc4c(c23)CCCC4)CC1 [Compound 2083J20]	0.8496	5.6256	18.511
O=C(Nc1ncnc2sc3c(c12)CCC3)c1cccs1 [Compound 2084I06]	12.419	0.9421	7.8022
Cc1sc2ncnc(NCc3cccnc3)c2c1C [Compound 2081F17]	0.439	1.6993	0.1374
Cc1sc2ncnc(N3CCN(CCO)CC3)c2c1C [Compound 2084A21]	0.0079	0.6718	0.1942
c1ccc(CNc2ncnc3sc4c(c23)CCCC4)cc1 [Compound 2077J03]	1.1908	1.9013	1.1575
CC(C)CNc1ncnc2sc3c(c12)CCCC3 [Compound 2077P12]	17.695	9.3964	1.6797
Cc1sc2ncnc(N3CCN(c4cccc(C(F)(F)F)c4)CC3)c2c1C [Compound 2074G03]	−1.925	−1.188	11.67
c1nc(NC2CCCC2)c2c3c(sc2n1)CCC3 [2084 E21]	18.891	0.593	29.047
Cc1sc2ncnc(N(C)C)c2c1C [Compound 2085O15]	−0.627	−1.519	1.0991
O=C(Nc1ncnc2sc3c(c12)CCCCC3)c1ccco1 [Compound 2084G06]	−1.808	0.884	6.4203
COc1ccc(CCNc2ncnc3sc(C)c(C)c23)cc1OC [Compound 1423F01]	–	4.2065	0.9043
CCOC(=O)CSc1nc(NC)c2c3c(sc2n1)CCCC3 [Compound 1439B09]	–	1.2391	0.5702
CN(C)CCCNc1ncnc2sc3c(c12)CCCC3 [Compound 1414C02]	–	21.25	1.6456
COC(=O)Cc1nc(N2CCC(C)CC2)c2c3c(sc2n1)CCCC3 [Compound 1392J18]	–	0.7173	10.795
Cc1sc2ncnc(NCC(=O)O)c2c1C [Compound 2085F18]	−1.774	0.8136	0.3168
c1ccc(CN2CCN(c3ncnc4sc5c(c34)CCCCC5)CC2)cc1 [Compound 2074A07]	0.7527	0.8366	−0.348
COc1ccccc1C(=O)Nc1ncnc2sc3c(c12)CCCC3 [Compound 1415M01]	–	1.1976	1.7784
CCN(CC)CCCNc1ncnc2sc3c(c12)CC(C)CC3 (stereo not drawn) [Compound 2083L15]	−1.18	−0.877	1.9931
CCN1CCN(c2nc(C)nc3sc4c(c23)CCC4)CC1 [Compound 1414C06]	–	0.632	1.6242
CCOC(=O)c1sc2nc(CC(=O)OC)nc(NCC(=O)OC)c2c1C [Compound 1379F18]	–	3.0462	−0.126
Cc1nc(N2CCOCC2)c2c(C)c(C(=O)Nc3cccc(Cl)c3C)sc2n1 [Compound 1424K08]	–	21.717	3.4896
C=CCNc1ncnc2sc3c(c12)CCCC3 [Compound 1435C20]	–	31.009	8.4736
O=C(O)C(Cc1ccccc1)Nc1ncnc2sc3c(c12)CCC3 (stereo not drawn) [Compound 1381O17]	–	0.3352	−0.467
CC(C)C(Nc1ncnc2sc3c(c12)CCC3)C(=O)O (stereo not drawn) [Compound 1381A19]	–	0.2365	1.3339
Cc1nc(N2CC(C)OC(C)C2)c2c3c(sc2n1)CCC3 (stereo not drawn) [Compound 1421B05]	–	5.4669	2.1932
c1cn(CCCNc2ncnc3sc4c(c23)CCCC4)cn1 [1435 E20]	–	0.5336	1.6661
c1nc(N2CCCCC2)c2c3c(sc2n1)CCC3 [Compound 1421A20]	–	4.7765	4.6254
CCNc1nc(C)nc2sc3c(c12)CCCC3 [Compound 1410G03]	–	2.8289	2.9506
